Source: patent US6949522B2, “β-2′- or 3′-halonucleosides” (Pharmasset, Inc., priority 2001, dated 2005)
Like-named read-outs stand apart in the source and are kept apart here.

What was measured:
HIV-1 xxBRU (wild type) [1] = assay: HIV-1 RT-assay on supernatant of acutely infected human PBM cells, strain xxBRU; assay type: cell-based; details: 5 days, RT activity reduced by 90%
Experimental: (§1) Human PBM cells (1×10^6 cells/T25 flask) were PHA stimulated for 2 or 3 days, and infected with either a wild type (LAI and xxBRU) or a 3TC-resistant (xxBRU 184V) HIV-1 strain at 100 TCID50, as previously described (27). The culture was kept for 5 days in presence of test compounds at serial 1-log dilutions. Subsequently, human PBM cells were removed from the culture supernatant by centrifugation (10 minutes, 400×g, 4° C.). This clarified supernatant was tested either in the RT-assay, or in the Q-RT-PCR assay.
(§2) Virus particles present in a 1 mL aliquot of culture supernatant were concentrated by high-speed centrifugation (2 hours, 20,000×g, 4° C.). The supernatant was then removed and the virus pellet was dispensed into a 100 μL virus solubilization buffer (VSB: 0.5% Triton X-100; 0.8 M NaCl, 0.5 mM phenylmethylsulfonyl, 20% glycerol, 50 mM Tris.HCl pH 7.8). A 10 μL aliquot of RT-VSB was mixed with 75 μL RT cocktail (60 mM Tris.HCl pH 7.8, 12 mM MgCl2, 6 mM DTT, 6 μg/mL poly (rA)n-oligo (dT)10-12, 1.2 mM dATP, and 80 μCi/mL 3H-TTP) and incubated for 2 hours at 37° C. Subsequently 100 μL of 10% TCA was added, and the total amount of incorporated 3H-TTP was determined.
(§3) HIV-1 present in culture supernatant fluids was quantified by two different methodologies: i) the Q-RT-PCR with read-out in log copies/mL; and ii) the endogenous viral RT assay on cell supernatant with read-out in log counts per minute/mL (CPM/mL). Upon addition of antiviral compounds to the culture media, a dose-related decrease in virus production was observed. Although the two methodologies measured different parameters (viral RNA versus active RT enzyme), results were not markedly different from each other. The HIV-1 Q-RT-PCR results were compared with a previously established cell-based antiviral drug evaluation assay (endogenous HIV-1 RT polymerization activity in cell supematant)(27).

[2] = system: 3TC-resistant (xxBRU 184V) HIV-1; assay: HIV-1 RT-assay on supernatant of acutely infected human PBM cells, strain xxBRU 184V; assay type: cell-based; details: for EC90: read-out: RT-Assay 184V EC90
Experimental: as §1, §2, §3

BVDV (strain NADL) = assay: BVDV Q-RT-PCR assay in MDBK cells; assay type: cell-based, bovine viral diarrhea virus; details: read-out: BVDV assay Q-PCR EC90
Experimental: Madin-Darby Bovine Kidney (MDBK) cells were maintained in DMEM/F12 supplemented with 10% heat-inactivated horse serum at 37° C. in a humidified, 5% CO2 atmosphere. Cells were seeded in 96-well plates at 5×10^3 cells/wcll and incubated for 1 hour. BVDV (strain NADL) was used to infect the cells in monolayer at MOI 0.02. After 45 minutes of infection, the viral inoculum was removed and the cells were washed twice. Media or media containing test compound was added to these cells, followed by 24 hour incubation. Cell supernatant fluids were collected, clarified by centrifugation (2 minutes, 3,000 g, room temperature) and viral RNA was prepared (QIAamp Viral RNA mini Kit, Qiagen). Viral RNA was detected in real-time RT-PCR.

rRNA gene = assay type: cell-based, human; details: HepG2, 10 μM, 7 days
Experimental: Low passage number HepG2 cells, obtained from American Tissue Culture Collection (ATCC, Manassas, Va.) were seeded at 5,000 cells/well in collagen-coated 96-well plates. Test compounds were added to the media to obtain a final concentration of 10 μM. On culture day 7, cellular nucleic acids were prepared by using commercially available columns (RNeasy 96 kit, Qiagen).
The rRNA gene primers and probes were purchased from Applied Biosystems. […] The comparative Ct method uses arithmetic formulas in which the amount of target (COXII gene) is normalized to an endogenous reference (β-actin gene or rRNA gene) and is relative to a calibrator (no drug control at day 7). The arithmetic formula for this approach is given by 2-ΔΔCt (User bulletin # 2, Applied Biosystems).
In order to study the consequences of possible inhibitory effects of these compounds on host DNA polymerases, nuclear and rnitochondrial DNA levels were quantified and compared to no-treatment controls. Cells were incubated for 7 days with 10 μM of each compound, followed by total nucleic acid extractions and multiplex Q-PCR of the rRNA gene and the mitochondrial COXII gene. Nucleic acids from cells exposed to the control compounds were also amplified in multiplex for mitDNA and the β-actin gene.

HIV-1 xxBRU (wild type) [3] = assay: HIV-1 Q-RT-PCR assay in human PBM cells, strain xxBRU; assay type: cell-based; details: 5 days, viral RNA reduced by 90%
Experimental: as §1
Viral RNA present in the culture supernatant was prepared using commercially available columns (QIAamp Viral RNA mini Kit, Qiagen, Valencia, Calif.). Viral RNA was detected in real-time by monitoring increases in fluorescence signal that resulted from degradation of a quenched fluorescent probe molecule following the hybridization of the probe to the arnplified viral DNA (TaqMan 7700 chemistry, Applied Biosystems, Foster City, Calif.). The TaqMan probe and primers were designed using the Primer Express software (Applied Biosystems); they cover highly conserved sequences complementary to an 81 base pair long fragment from the HIV-1 RT gene between codon 230 and 257 of the group MHIV-1 genome; • probe 5′-6FAM-[…]-TAMRA-3′ (Sequence 1) • sense primer: 5′-[…]-3′ (Sequence 2); and • antisense primer 5′-[…]-3′ (Sequence 3).
A total of 5 μL RNA was RT-amplified using reagents and conditions as described by the manufacturer (Applied Biosystems). […] Copy numbers were calibrated using the Roche Amplicor HIV-1 Monitor test™ (Roche Diagnostics, Branchburg, N.J.) on a 1-log dilution series of a clinical HIV-1 genotype B isolate (attenuated in vitro to obtain a high viral load). The 10-6 diluted sample became positive at threshold cycle (Ct=PCR cycle threshold where a sample becomes detectable)=35.52, which corresponded to 1,410 copies/mL in the Roche monitor HIV-1 version II assay. When validated over a dynamic range of 3 logs of virus, there was excellent correlation (r2˜1) between the two methodologies. […] Therefore, the currently designed primer and probe set allowed reliable quantification of both clinical samples and HIV-1 in vitro preparations.
as §3

HIV-1 LAI (wild type) = assay: HIV-1 RT-assay on supernatant of acutely infected human PBM cells, strain LAI; assay type: cell-based; details: 5 days, RT activity reduced by 90%
Experimental: as §1, §2, §3

[4] = human PBM cells, 5 days, RT activity reduced by 90%
[5] = MDBK cells, 24 hour incubation, viral RNA in supernatant
[6] = Human immunodeficiency virus 1, PBMC, 120 h
[7] = Bovine viral diarrhea virus isolates and strains, MDBK cells, 24 hour incubation, viral RNA in supernatant

SMILES	EC90 (HIV-1 xxBRU (wild type) [1]) [µM]	RT-Assay FI, fold increase (EC90 HIV-1184V/EC90 HIV-1xxBRU) [2]	EC90 [2, 4] [µM]	EC90 (BVDV (strain NADL); [5]) [µM]	Average ΔCt ± SD rDNA (rRNA gene)	EC90 (HIV-1 xxBRU (wild type) [3]) [µM]	EC90 (HIV-1 LAI (wild type)) [µM]	EC90 (HIV-1 xxBRU (wild type) [1]; [6]) [µM]	EC90 [2, 6] [µM]	EC90 (BVDV (strain NADL); [7]) [µM]	Average ΔΔCt ± SD rDNA-β-actin (rRNA gene)	EC90 (HIV-1 xxBRU (wild type) [3]; [6]) [µM]	EC90 (HIV-1 LAI (wild type); [6]) [µM]	EC90 (BVDV (strain NADL); Bovine viral diarrhea virus isolates and strains, MDBK, 24 h) [µM]
Nc1ccn([C@@H]2S[C@H](CO)C=C2F)c(=O)n1 [Compound D-17, (−)-1-[(1S,4R)-2,3-dideoxy-2,3-didehydro-2-fluoro4-thio-β-D-ribofuranosyl]-cytosine]	5	25.0	125	> 200	0.81 ± 0.60	5.2	11.9							
Cc1cn([C@H]2C[C@H](N=[N+]=[N-])[C@@H](CO)O2)c(=O)[nH]c1=O [AZT, 3′-azido-3′-deoxythymidine, reference compound]					0.86 ± 0.55			0.01	0.002	> 200	0.76 ± 0.87	0.01	0.02	
Nc1ccn([C@H]2S[C@@H](CO)C=C2F)c(=O)n1 [Compound L-17, (+)-1-[(1S,4R)-2,3-dideoxy-2,3-didehydro-2-fluoro-4-thio-β-L-ribofuranosyl]-cytosine]	1.4	1,121	1570	> 200	0.49 ± 0.77	2.1	3.3							
Nc1nc(=O)n([C@H]2S[C@@H](CO)C=C2F)cc1F [Compound L-18, (+)-1-[(1S,4R)-2,3-dideoxy-2,3-didehydro-2-fluoro-4-thio-β-L-ribofuranosyl]-5-fluoro-cytosine]	1.1	>100	> 100	> 200	0.10 ± 0.44	0.94	2.6							
Nc1ccn([C@@H]2C=C(F)[C@H](CO)O2)c(=O)n1 [Compound 10, 1-(2,3-Dideoxy-3-fluoro-β-L-glycero-pent-2-eno-furanosyl)cytosine]		16.1			−0.08 ± 0.50			35.5	572			35.4	25.3	> 200
Nc1ccn([C@@H]2C=C(F)[C@H](CO)O2)c(=O)n1 [Compound 23, 1-(2,3-Didcoxy-3-fluoro-β-L-glycero-pent-2-eno-furanosyl)cytosine]	0.14	586	82	> 200	−0.51 ± 0.35	0.6	0.67							
Nc1ccn([C@@H]2CS[C@H](CO)O2)c(=O)n1 [Compound 3TC, (−)-β-2′,3′-dideoxy-3′-thiacytidine, reference compound]		6,688			0.47 ± 0.51			0.08	535	> 200	0.36 ± 0.66	0.06	0.13	
Nc1nc(=O)n([C@@H]2S[C@H](CO)C=C2F)cc1F [Compound D-18, (−)-1-[(1S,4R)-2,3-dideoxy-2,3-didehydro-2-fluoro-4-thio-β-D-ribofuranosyl]-5-fluorocytosine]	119		> 100	> 200	−0.45 ± 0.60	73.9	> 100							
